Reference: patent US20040062848A1, “Lapactic agent” (priority 2002, published 2004)

Experiment: Acute toxicity (LD50)
Conditions: in vivo

Substance: ε-polylysine hydrochloride
- acute toxicity in LD50: ≥ 5000 mg/kg
